Measurements: patent US10647680B2, “Urea compound, preparation method therefor and medical use thereof” (Ancureall Pharmaceutical (Shanghai) Co., Ltd., priority 2016, dated 2020)

Legend:
Type in all cases: cell-based
[1] = system: HL-60 (FLT3 wild type); assay: In vitro growth inhibition (GI50), HL-60; conditions: Homo sapiens, Cell lines of leukemia, read-out: GI 50 HL60 FLT3 (WT)
Summary of the method: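 After 3–5 days of treatment (top concentration 5,000 nM, serially diluted 2- or 10-fold to 0.01 nM, solvent ≤1%), viability was read by CCK8 at OD450. Growth rate was normalised to the time-zero and solvent-control wells, and GI50 was derived from the curve. Cultures in RPMI1640 + 10% FBS.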

[2] = system: H1299 (NRAS Q61K mutant type); assay: In vitro growth inhibition (GI50), H1299; conditions: Homo sapiens, NCI-H1299
Source text: (§1) Tumor cell line is an effective cell model for studying the inhibition of tumor cell growth or proliferation in vitro. In the present invention, a representative tumor cell line was selected to determine the cell growth inhibition activity of the present compound. All cell lines used were from ATCC, DSMZ, and the Cell Bank of the Chinese Academy of Sciences. Cell culture conditions and methods were in accordance with the requirements of each cell line. Cells were subcultured in vitro for no more than 3 passages each time, and as required, single-clone purification and identification of cell lines could be carried out.
(§2) The cell culture media used were RPMI1640 (Gibco), MEM (Gibco), McCOY'S5A (Gibco), and IMDM (Gibco). The complete medium was prepared by supplement with 5˜20% fetal calf serum (Gibco), 1% double-antibiotics (10000 units/mL penicillin and 10000 units/mL), 2 mM glutamine or 1 mM sodium pyruvate, respectively.
Human large cell lung cancer cell NCI-H460 (KRAS […] mutant type, ATCC), human non-small cell lung cancer cell line H1299 (NRAS Q61K mutant type, ATCC), human melanoma cell line A375 (BRAF V600E mutant type, Shanghai Cell Bank of Chinese Academy of Sciences), human colon cancer cell line HCT116 (KRAS G13D mutant type, Shanghai Cell Bank, Chinese Academy of Sciences) were cultured in a complete medium of 1×RPMI1640 (10% FBS), respectively. Human non-small cell lung cancer cells A549 (KRAS G12S mutant type, Shanghai Cell Bank, Chinese Academy of Sciences) were cultured in a complete medium of 1× Ham's supplemented with 10% FBS, 1% double antibody, and 2 mM glutamine.
(§3) Adherent cells were digested with 0.25% pancreatin-EDTA (Gibco). The suspension cells were collected by centrifugation. The supernatant was discarded and the cell pellet was resuspended and counted. Different cell concentrations (5˜10×10^4 cells/mL) were prepared according to the growth cycle of each cell line and then seeded on a 96-well plate (Corning), 100 μL/well. The cells were incubated overnight at 37° C., 5% CO2. The compounds were added to the cells on the second day with 2 wells in parallel. The final concentration of organic solvent shall not exceed 1%. The cells were continually incubated for 3 to 5 days, and then subjected to MTT assay.
(§4) The compound of the present invention and the control compound were dissolved in DMSO (Sigma) respectively, with the purity of more than 98%. The compound was stored in a concentration of 10 mM at −20° C. and diluted to 2- or 10-fold series prior to use.
(§5) Dojindo CCK8 reagent kit was used as MTT assay. THERMO […] FC meter was used as microplate reader.
(§6) For adherent cells, culture medium was removed and immediately replaced with the fresh prepared medium which contains 10% CCK8 reagent (100 μL/well). For the suspension cells, CCK8 was directly added to 10% of the final concentration. The cells were continually incubated for 1˜4 h. When a dark yellow color could be observed in the solvent control wells, the absorbance value at OD450 nm was measured and the cell growth rate was calculated according to the following formula: Cell Growth Rate (%)=100*(T−T0)/(C−T0) T=optical density of drug treatment cell well—optical density of blank control well; T0=optical density of cell well before drug treatment—optical density of blank control well; C=optical density of cell well of solvent control group—optical density of blank control well. The concentration value of 50% inhibition of cell growth (GI50) was calculated according to the drug concentration and cell growth rate curve. The experiment was independently repeated 1˜3 times, and subject to biological statistical analysis. 4. Experimental Results
Tumor cell growth inhibition test was performed by selecting representative compounds (compounds 4, 11, 12, 16, 27, 68, 71, 77, 79, 89 and 116 of the present invention). The initial concentration of the compound was 5,000 nM, then it was serially diluted by 2-fold or 10-fold to 0.01 nM. […]

[3] = system: SH-SY5Y (expressing ALK F1174L mutant protein); assay: In vitro growth inhibition (GI50), SH-SY5Y; conditions: Homo sapiens
Source text: as §1, §2
Human non-small cell lung cancer cell line NCI-H2228 (expressing EML4-ALK fusion gene, ATCC) and human anaplastic large cell lymphoma cell line Karpas-299 (expressing NPM-ALK fusion gene, ATCC) were cultured in complete medium comprising 1×RPMI1640 (10% FBS), respectively. Neuroblastoma cell line SH-SY5Y (expressing ALK F1174L mutant protein, Shanghai Cell Bank, Chinese Academy of Sciences) was cultured in MEM complete medium (1×MEM, 10% FBS, 1% NEAA, 1 mM sodium pyruvate).
as §3, §4, §5, §6
Tumor cell growth inhibition test was performed by selecting representative compounds (compounds 4, 11, 12, 16, 27, 68, 71, 77, 79, 89 and 116 of the present invention). The initial concentration of the compound was 5,000 nM, then it was serially diluted by 2-fold or 10-fold to 0.01 nM. The GI50 value of each test compound was calculated according to the GI50 assay and calculation method. The experiments were repeated 1 to 3 times, and data were subjected to biological statistical analysis.

CC(C)(C)c1cc(NC(=O)Nc2ccc(-n3cnc4cc(OCCO)ccc43)cc2)no1 [Compound 11, 1-(5-tert-butyl-isoxazol-3-yl)-3-{4-[5-(2-hydroxy-ethoxyl)-benzimidazol-1-yl]-phenyl]-urea]
GI50 [1]: > 1000 nM | GI50 [2]: > 2500 nM | GI50 [3]: > 2500 nM

COc1ccc2c(c1)ncn2-c1ccc(NC(=O)Nc2cc(C(C)(C)C)n[nH]2)cc1 [Compound 71, 1-(5-tert-butyl-2H-pyrazol-3-yl)-3-[4-(5-methoxyl-benzimidazol-1-yl)-phenyl]-urea]
GI50 [1]: > 1000 nM | GI50 [2]: > 2500 nM | GI50 [3]: > 2500 nM

CC(C)(C)c1cc(NC(=O)Nc2ccc(-n3cnc4cc(O)ccc43)cc2)no1 [Compound 4, 1-(5-tert-butyl-isoxazol-3-yl)-3-[4-(5-hydroxy-benzimidazol-1-yl)-phenyl]-urea]
GI50 [1]: 100 to 1000 nM | GI50 [2]: > 2500 nM | GI50 [3]: > 2500 nM

COCCOc1ccc2c(c1)ncn2-c1ccc(NC(=O)Nc2cc(C(C)(C)C)n[nH]2)cc1 [Compound 77, 1-(5-tert-butyl-2H-pyrazol-3-yl)-3-{4-[5-(2-methoxyl-ethoxyl)-benzimidazol-1-yl]-phenyl}-urea]
GI50 [1]: > 1000 nM | GI50 [2]: > 2500 nM | GI50 [3]: > 2500 nM

CC(C)(C)c1cc(NC(=O)Nc2ccc(-n3cnc4cc(OCCO)ccc43)cc2)[nH]n1 [Compound 79, 1-(5-tert-butyl-2H-pyrazol-3-yl)-3-{4-[5-(2-hydroxy-ethoxyl)-benzimidazol-1-yl]-phenyl]urea]
GI50 [1]: > 1000 nM | GI50 [2]: > 2500 nM | GI50 [3]: > 2500 nM

CC(C)(C)c1cc(N)n(C(=O)Nc2ccc(-n3cnc4ccccc43)cc2)n1 [Compound 116, 5-amino-3-tert-butyl-pyrazol-1-carboxylic acid (4-benzimidazol-1-yl-phenyl)-amide]
GI50 [1]: > 1000 nM | GI50 [2]: > 2500 nM | GI50 [3]: > 2500 nM

CC(C)(C)c1cc(NC(=O)Nc2ccc(-n3cnc4ccc(OCCN5CCOCC5)cc43)cc2)no1 [Compound 27, 1-(5-tert-butyl-isoxazol-3-yl)-3-{4-[6-(2morpholin-4-yl-ethoxyl)-benzimidazol-1-yl]-phenyl}-urea]
GI50 [1]: 100 to 1000 nM | GI50 [2]: > 2500 nM | GI50 [3]: > 2500 nM

CC(C)(C)c1cc(NC(=O)Nc2ccc(-n3cnc4ccccc43)cc2)[nH]n1 [Compound 68, 1-(4-benzimidazol-1-yl-phenyl)-3-(5-tert-butyl-2H-pyrazol-3-yl)-urea]
GI50 [1]: > 1000 nM | GI50 [2]: > 2500 nM | GI50 [3]: > 2500 nM

CC(C)(C)c1cc(NC(=O)Nc2ccc(-n3cnc4cc(OCCN5CCOCC5)ccc43)cc2)no1 [Compound 16, 1-(5-tert-butyl-isoxazol-3-yl)-3-{4-[5-(2-morpholin-4-yl-ethoxyl)-benzimidazol-1-yl]-phenyl}-urea]
GI50 [1]: > 1000 nM | GI50 [2]: > 2500 nM | GI50 [3]: > 2500 nM

CC(C)(C)c1cc(NC(=O)Nc2ccc(-n3cnc4cc(OCCN5CCOCC5)ccc43)cc2)[nH]n1 [Compound 89, 1-(5-tert-butyl-2H-pyrazol-3-yl)-3-{4-[5-(2-morpholin-4-yl-ethoxyl)-benzimidazol-1-yl]-phenyl}-urea]
GI50 [1]: > 1000 nM | GI50 [2]: > 2500 nM | GI50 [3]: > 2500 nM
